Test results: US9044526B2, “Medical product containing active component of propolis or grapefruit seed extract and manufacturing method thereof” (Korea Institute of Ceramic Engineering and Technology, priority 2011, dated 2015)

Tests used:
[1] = Degradation behavior of PGLA multifilament in PBS solution; assay type: physicochemical
Excerpt: FIG. 9 is a photograph showing the results of observing the degradation behavior of 0.1 g of the PGLA multifilament in PBS solution (pH7.4; similar to the human body) for 0 day, 10 days and 2 months. […] Also, it can be seen that the grapefruit seed extract and CAPE or pinocembrin which is the active component of propolis have no effect on the degradation of the multifilament.

[2] = tested on: Escherichia coli DH 5α (ATCC 25922); assay: Antibacterial activity of impregnated multifilament, agar diffusion; assay type: cell-based; conditions: contained in multifilament, treatment concentration 1000 ppm, 37.1° C., 24 hours, FIG. 8
Method: (§1) The antibacterial activity of the multifilament of Example containing the grapefruit seed extract and the active components (CAPE and pinocembrin) of propolis was tested. In the test, the cells of bacterial strains were grown in LB medium (peptone 10 g) by agar diffusion, and the growth of the bacterial strains was examined by UV-Vis spectroscopy. As the test strains, Staphylococcus aureus (ATCC 6538) and Escherichia coli DH 5α (ATCC 25922) were used. The bacterial cells were cultured at 37.1° C. for 24 hours, and then changes in the bacterial strains were measured. FIG. 8 is a set of photographs showing a comparison of antibacterial activity between a multifilament containing the grapefruit seed extract and a multifilament containing the active component (CAPE) of propolis. […] In FIG. 8, 1: a control group, 2 to 6: samples impregnated with a solution of CAPE and the grapefruit seed extract; a: a sample treated with Staphylococcus aureus; b: a sample treated with Escherichia coli DH 5α. In the photograph of FIG. 8, the treatment concentration is 1000 ppm. […] Although a lower concentration of the antibacterial material is contained in the multifilament, it is considered that the test should be carried out at 1000 ppm, because the concentration of the antibacterial material in the multifilament will be excessively low when the test is carried out at a lower concentration. […]

[3] = tested on: Staphylococcus aureus (ATCC 6538); assay: as above; assay type: cell-based; conditions: contained in multifilament, treatment concentration 1000 ppm, 37.1° C., 24 hours, FIG. 8
Method: as §1

[4] = Drug release of impregnated multifilament in 0.01M PBS; assay type: physicochemical; conditions: release from multifilament impregnated with 1000 ppm solution; 0.01M PBS pH 7.4, 37, examined 0-100 hours
Method: In order to examine the […] drug release of each of the multifilament samples impregnated with CAPE and GSE for 440 min and pinocembrin for 720 min in Example 3, the following test was performed. As a solvent for use in this release test, 0.01M PBS (by phosphate buffer calculator, monobasic monohydrate: 1.1832 g, and dibasic ACS reagent: 8.1572 g) was prepared and adjusted to a pH of 7.4. After standard curves of FIGS. 5A, 5B and 5C for the grapefruit seed extracts and CAPE and pinocembrin (the active components of propolis) were plotted, and then tests for the materials were performed at the respective concentrations. The standard curves for the functional materials were obtained by measuring the absorbance using JASCO V-550 UV-Vis Spectrometer (Wavelength Range: 200-900 nm; Bandwidth Selectable: 0.5 nm; Scanning Speed: 400 nm/min; Data Pitch: 1 nm). The standard curve equations shown in FIGS. 5A (CAPE), 5B (Pinocembrin) and 5C (grapefruit seed extract) are as follows: y=0.126x+0.022 CAPE (1) y=0.051x+0.021 Pinocembrin (2) y=0.002x−0.035 Grapefruit seed extract (3) wherein x is the concentration of each functional material, and y is the absorbance of each functional material. […]

Row | Compound | effect on the degradation of the multifilament ([1]; pH 7.4) | antibacterial activity [2] | antibacterial activity [3] | time at which drug release behavior was completed [4] [h] | effect on the degradation of the multifilament ([1]; PBS solution pH7.4, 0 day, 10 days and 2 months, FIG. 9) | degradation of the multifilament ([1]; pH 7.4)
1 | O=C(/C=C/c1ccc(O)c(O)c1)OCCc1ccccc1 [CAPE, caffeic acid phenethyl ester] | no effect | showed antibacterial activity | showed antibacterial activity | ≤ 64 | – | –
2 | O=C1CC(c2ccccc2)Oc2cc(O)cc(O)c21 (stereo not shown) [pinocembrin] | – | – | – | ≤ 60 | no effect | –
3 | poly(glycolide-co-L-lactide) [PGLA multifilament] | – | – | – | – | – | significantly rapid
